Data published in US9353090B2, “Heterocyclic carboxylic acids as activators of soluble guanylate cyclase” (Boehringer Ingelheim International GmbH, priority 2014, dated 2016).
In brackets after ≈: the same amount, converted by molar mass.

Tests used:
[1] = biological target: human soluble guanylate cyclase alpha 1 and beta 1 subunits (sGC) (Homo sapiens (Human), UniProt Q02108+Q02153); assay: sGC cellular activator assay (cGMP, HTRF), in the presence and absence of 50% human serum; type: cell-based; details: CHO cells stably expressing human sGC alpha 1/beta 1, preincubated with 40 microM ODQ; cGMP by HTRF; Table 2 does not state whether with or without 50% human serum
Procedure: The sGC cellular activator assay is performed in the presence and absence of 50% human serum (HS) using Chinese hamster ovary cells that have been stably transfected to express the human soluble guanylate cyclase alpha 1 and beta 1 subunits (sGC). Cells are preincubated with 40 microM 1H-[1,2,4]oxadiazolo[4,3-a]quinoxalin-1-one (ODQ), an sGC inhibitor, for one h in buffer containing 0.1% bovine serum albumin and 3-isobutyl-1-methylxanthine (IBMX). Concentration response curves are prepared for test compounds in DMSO. An intermediate dilution of the compounds is performed in either buffer containing IBMX or type AB HS containing IBMX. Diluted compounds are added to cells and they are incubated at room temperature for thirty min. cGMP is measured using a CisBio homogeneous time resolved fluorescence kit and the EC50 is calculated for each compound.
Representative compounds of the present invention were tested for activity the above assay. Preferred compounds have an EC50 of <1,000 nM in the above assay and more preferred compounds have an EC50<200 nM.

[2] = Human liver microsome (HLM) metabolic stability assay; type: in vitro ADME; details: human liver microsomes
Procedure: The 5 time point, high-throughput human liver microsome (HLM) metabolic stability assay is designed to determine in vitro compound metabolism. Compounds are incubated with HLMs at a concentration of 1 uM, at 37° C., for a total of 60 min. The percent of compound remaining at 5, 15, 30, and 60 min is used to calculate the t1/2 (min), CLint (mL/min/kg), CLh (mL/min/kg), and % Qh. The assay is based on a 96-well format and can accommodate up to 92 compounds per plate (n=1).
Using the 96-well multi-channel head, the Biomek FX, equipped with a Peltier heating block/shaker, is programmed to accomplish the following steps: • 1. Pipette 175 uL of 1.15 mg/mL microsomes into each of the 96 conical inserts (Analytical Sales and Products, catalog number 96PL05) that fit into the plate of the Peltier heating block/shaker (the incubation plate) • 2. Add 5 uL of compounds from the assay plate to the microsomes and shake the mixture at 600 rpm at 42.1° C. for 10 min (a setting of 42.1° C. on the Peltier is required for the samples to incubate at 37° C.) • 3. After 10 min, prompt the user to add the NADPH plate to the deck and add 20 uL from the NADPH plate to the incubation plate to start the reaction • 4. Add 215 uL of 100%, cold acetonitrile containing an internal standard(s) to a 0 minute, 5 minute, 15 minute, 30 minute, and 60 minute “quench” plate • 5. At 0 min, 5 min, 15 min, 30 min, and 60 min into the incubation, aspirate 12 uL from the incubation mixture and add it to the quench solution to stop the reaction • 6. Add 185 uL HPLC grade water to each well of the 0, 5, 15, 30 and 60 minute quench plates to dilute compounds to the appropriate concentration for the mass spectrometer
After all time points are collected, the quench plates are sealed with 96-well pierceable plate mats or heat sealing foil and centrifuged at 3000 rpm for 15 min to pellet the microsomes.
The plates are analyzed using LC/MS/MS with electron spray ionization (ESI) and the previously determined MRM transitions. The LC method includes the following parameters:
Using an Excel template in Activitybase, the peak areas corresponding to 5, 15, 30 and 60 min are compared to the peak area at 0 min to calculate the percent of remaining compound using the following equation:
Percent compound remaining=(AUC at Time t min/AUC at Time 0 min)×100 where t=0, 5, 15, 30 or 60 min.
Time (min) is plotted against the natural logarithm (Ln) of the percent compound remaining to determine the slope. The slope is used to calculate t1/2 (min) using the equation, t1/2=0.693/slope.
Clh, Hepatic clearance • Hepatic flow*f(u)*Clint/(hepatic flow+f(u)*Clint)
Qh, % Hepatic blood flow • (Clh/Hepatic flow)*100
Preferred compounds have % Qh values of less than 24.

physchem = details: kinetic from dmso stock
[3] = pH 2.2, aqueous buffer, Solubility (pH 2.2)
[4] = pH 4.5, aqueous buffer, Solubility (pH 4.5)
[5] = pH 6.8, aqueous buffer, Solubility (pH 6.8)

Sequence of human soluble guanylate cyclase alpha 1 and beta 1 subunits (sGC) (Q02108 whole entry partner): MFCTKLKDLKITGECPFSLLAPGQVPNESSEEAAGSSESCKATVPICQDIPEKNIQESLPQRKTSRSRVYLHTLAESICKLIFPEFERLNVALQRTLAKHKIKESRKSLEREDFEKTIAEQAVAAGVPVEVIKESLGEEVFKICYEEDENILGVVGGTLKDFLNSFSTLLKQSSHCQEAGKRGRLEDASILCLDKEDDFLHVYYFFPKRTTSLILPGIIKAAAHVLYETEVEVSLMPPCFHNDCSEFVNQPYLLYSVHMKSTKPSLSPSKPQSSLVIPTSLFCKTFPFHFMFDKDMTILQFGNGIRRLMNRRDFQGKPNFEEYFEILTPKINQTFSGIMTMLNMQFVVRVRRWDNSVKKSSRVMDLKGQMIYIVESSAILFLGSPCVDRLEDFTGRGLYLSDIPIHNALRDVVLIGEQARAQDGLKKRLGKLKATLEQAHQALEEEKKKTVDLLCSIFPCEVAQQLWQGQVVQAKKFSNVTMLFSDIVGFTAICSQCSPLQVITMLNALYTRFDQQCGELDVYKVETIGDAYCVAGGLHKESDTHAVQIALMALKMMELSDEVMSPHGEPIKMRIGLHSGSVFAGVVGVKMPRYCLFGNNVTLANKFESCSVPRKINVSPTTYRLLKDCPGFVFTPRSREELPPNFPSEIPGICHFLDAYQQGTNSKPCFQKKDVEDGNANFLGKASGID
Sequence of human soluble guanylate cyclase alpha 1 and beta 1 subunits (sGC) (Q02153 whole entry): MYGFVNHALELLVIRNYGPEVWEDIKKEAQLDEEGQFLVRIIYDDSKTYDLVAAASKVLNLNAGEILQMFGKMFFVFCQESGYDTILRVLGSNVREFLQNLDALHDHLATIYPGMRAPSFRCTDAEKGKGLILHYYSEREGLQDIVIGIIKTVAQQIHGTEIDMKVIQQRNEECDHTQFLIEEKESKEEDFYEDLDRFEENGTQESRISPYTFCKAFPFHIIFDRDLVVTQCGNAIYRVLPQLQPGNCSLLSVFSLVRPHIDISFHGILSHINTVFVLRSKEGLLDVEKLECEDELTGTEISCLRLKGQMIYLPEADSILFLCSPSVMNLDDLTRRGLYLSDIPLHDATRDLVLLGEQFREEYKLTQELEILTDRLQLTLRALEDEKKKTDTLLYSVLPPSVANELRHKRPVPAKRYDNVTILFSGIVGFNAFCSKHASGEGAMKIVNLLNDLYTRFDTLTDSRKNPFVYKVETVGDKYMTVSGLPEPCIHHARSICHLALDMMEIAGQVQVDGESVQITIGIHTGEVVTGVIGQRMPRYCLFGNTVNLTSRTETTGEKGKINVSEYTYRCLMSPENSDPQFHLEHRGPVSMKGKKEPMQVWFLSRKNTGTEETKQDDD

Structure (SMILES)	EC50 [1]	Metabolic stability (Qh %), % hepatic blood flow [2]	solubility at 24 h (physchem; [3])	solubility at 24 h (physchem; [4])	solubility at 24 h (physchem; [5])
Cc1ccc(OCc2ccc3c(c2C)CCN(C2CCOCC2)C3)c(-c2cccc(N3CC[C@@]4(C(=O)O)C[C@H]4C3)n2)c1 [Compound 18]	2 nM	34%	130 µg/mL (≈ 229 µM)	99 µg/mL (≈ 174 µM)	38 µg/mL (≈ 66.9 µM)
CO[C@@H]1CN(c2cccc(-c3cccc(C)c3OCc3ccc4c(c3C)CCN(C3COC3)C4)n2)CC[C@@H]1C(=O)O [Compound 69]	16 nM	<24%	130 µg/mL (≈ 233 µM)	110 µg/mL (≈ 197 µM)	89 µg/mL (≈ 160 µM)
Cc1cccc(-c2csc(N3CC[C@@]4(C(=O)O)C[C@H]4C3)n2)c1OCc1ccc2c(c1C)CCN(CC1COCCO1)C2 (some centres unmarked) [Compound 86]	2 nM	41%	120 µg/mL (≈ 203 µM)	71 µg/mL (≈ 120 µM)	57 µg/mL (≈ 96.6 µM)
COC[C@H]1N(c2cccc(-c3cccc(C)c3OCc3cc4c(c(OC)c3)CN(C3COC3)CC4)n2)C[C@@H]2C[C@@]21C(=O)O [Compound 58]	30 nM	<24%	110 µg/mL (≈ 188 µM)	90 µg/mL (≈ 154 µM)	80 µg/mL (≈ 137 µM)
CO[C@H]1CN(c2cccc(-c3cccc(C)c3OCc3ccc4c(c3)CCN(C3CCOCC3)C4)n2)CC[C@H]1C(=O)O [Compound 64, (3R,4R)-3-Methoxy-6′-{3-methyl-2-[2-(tetrahydro-pyran-4-yl)-1,2,3,4-tetrahydro-isoquinolin-6-ylmethoxy]-phenyl}-3,4,5,6-tetrahydro-2H-[1,2′]bipyridinyl-4-carboxylic acid]	36 nM	29%	100 µg/mL (≈ 175 µM)	88 µg/mL (≈ 154 µM)	69 µg/mL (≈ 121 µM)
CO[C@@H]1CN(c2nc(-c3cccc(C)c3OCc3ccc4c(c3F)CCN(C3COC3)CC4)cs2)CC[C@@H]1C(=O)O [Compound 267]	7 nM	<24%	116 µg/mL (≈ 199 µM)	60.3 µg/mL (≈ 104 µM)	59.6 µg/mL (≈ 102 µM)
CO[C@@H]1CN(c2cccc(-c3cccc(C)c3OCc3cc(C)c4c(c3)CN(C3CCOCC3)C4)n2)CC[C@@H]1C(=O)O [Compound 338]	24 nM	<24%	132 µg/mL (≈ 230 µM)	106 µg/mL (≈ 185 µM)	73.6 µg/mL (≈ 129 µM)
Cc1cc(C)c(OCc2ccc3c(c2C)CCN(C2CCOCC2)C3)c(-c2csc(N3C[C@@H]4C[C@]4(C(=O)O)C3)n2)c1 [Compound 152]	71 nM	<24%	110 µg/mL (≈ 192 µM)	70 µg/mL (≈ 122 µM)	53 µg/mL (≈ 92.4 µM)
CCO[C@H]1CN(c2nc(-c3cc(C)ccc3OCc3cc4c(c(OC)c3)CN(C3CCOCC3)CC4)cs2)CC[C@H]1C(=O)O [Compound 233]	190 nM	<24%	135 µg/mL (≈ 217 µM)	124 µg/mL (≈ 200 µM)	122 µg/mL (≈ 197 µM)
Cc1cccc(-c2csc(N3C[C@H]4C[C@@]4(C(=O)O)[C@@H]3C)n2)c1OCc1ccc2c(c1C)CCN(C1CCOCC1)C2 [Compound 155]	46 nM	<24%	96 µg/mL (≈ 167 µM)	69 µg/mL (≈ 120 µM)	61 µg/mL (≈ 106 µM)
COC[C@H]1N(c2nc(-c3cccc(C)c3OCc3cc(C)c4c(c3)CCN(C3COC3)C4)cs2)C[C@@H]2C[C@@]21C(=O)O [Compound 161]	7 nM	<24%	110 µg/mL (≈ 191 µM)	62 µg/mL (≈ 108 µM)	76 µg/mL (≈ 132 µM)
CCc1cc(COc2c(C)cccc2-c2cccc(N3C[C@@H]4C[C@]4(C(=O)O)[C@H]3COC)n2)cc2c1CN(C1CCOC1)CC2 (some centres unmarked) [Compound 55]	10 nM	<24%	150 µg/mL (≈ 251 µM)	110 µg/mL (≈ 184 µM)	82 µg/mL (≈ 137 µM)
CO[C@@H]1CN(c2cccc(-c3cccc(Cl)c3OCc3cc(C)c4c(c3)CCN(C3CCOCC3)C4)n2)CC[C@@H]1C(=O)O [Compound 255]	7 nM	25%	170 µg/mL (≈ 280 µM)	69.5 µg/mL (≈ 115 µM)	37.7 µg/mL (≈ 62.2 µM)
CCO[C@@H]1CN(c2nc(-c3cc(C)ccc3OCc3cc(C)c4c(c3F)CCN(C3CCOCC3)C4)cs2)CC[C@@H]1C(=O)O [Compound 269]	6 nM	<24%	115 µg/mL (≈ 184 µM)	35.1 µg/mL (≈ 56.3 µM)	3 µg/mL (≈ 4.81 µM)
Cc1cc(COc2c(C)cccc2-c2csc(N3C[C@@H]4C[C@]4(C(=O)O)C3)n2)cc2c1CN(C1CCOCC1)CC2 [Compound 140]	5 nM	<24%	100 µg/mL (≈ 179 µM)	73 µg/mL (≈ 130 µM)	60 µg/mL (≈ 107 µM)
CCO[C@H]1CN(c2cccc(-c3cccc(C)c3OCc3cc4c(c(OC)c3)CN(C3CCOCC3)CC4)n2)CC[C@H]1C(=O)O [Compound 234]	257 nM	55%	128 µg/mL (≈ 207 µM)	124 µg/mL (≈ 201 µM)	117 µg/mL (≈ 190 µM)
Cc1cccc(-c2cccc(N3CC[C@@]4(C(=O)O)C[C@H]4C3)n2)c1OCc1ccc2c(c1C)CCN(C1CCOCC1)C2 [Compound 14]	3 nM	61%	120 µg/mL (≈ 211 µM)	94 µg/mL (≈ 166 µM)	53 µg/mL (≈ 93.4 µM)
Cc1cc(COc2c(C)cccc2-c2csc(N3CC[C@@]4(C(=O)O)C[C@H]4C3)n2)c(C)c2c1CN(C1CCOC1)CC2 (some centres unmarked) [Compound 100]	3 nM	55%	130 µg/mL (≈ 227 µM)	68 µg/mL (≈ 119 µM)	27 µg/mL (≈ 47.1 µM)
COC[C@H]1N(c2cccc(-c3cccc(C)c3OCc3ccc4c(c3F)CCN(C3CCOCC3)CC4)n2)C[C@@H]2C[C@@]21C(=O)O [Compound 262]	3 nM	25%	133 µg/mL (≈ 215 µM)	94.9 µg/mL (≈ 154 µM)	67.4 µg/mL (≈ 109 µM)
